Test system: NOMO1
Experiment: cell viability relative to DMSO control; higher = less cytotoxic
Conditions: 48 h
Procedure, shortened: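 Three leukemia lines were tested: NOMO1 and SEM at 500 cells/well and P12-Ichikawa at 1000 cells/well. Each was adapted for at least four passages in each medium and seeded in 5 μl in 1536-well plates, and library compounds in DMSO were pin-dosed from 47 μM to 0.79 nM in 11 threefold steps. After 48 h at 37°C, CellTiter-Glo One luminescence was read. Viability is a percentage relative to DMSO wells on each plate, with cell-free wells as background.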

[1] = HPLM + 10% dialyzed FBS, 0.000781 µM
[2] = HPLM + 10% dialyzed FBS, 0.00234 µM
[3] = HPLM + 10% dialyzed FBS, 0.00702 µM
[4] = HPLM + 10% dialyzed FBS, 0.0211 µM
[5] = HPLM + 10% dialyzed FBS, 0.0632 µM
[6] = HPLM + 10% dialyzed FBS, 0.19 µM
[7] = HPLM + 10% dialyzed FBS, 0.569 µM
[8] = HPLM + 10% dialyzed FBS, 1.71 µM
[9] = HPLM + 10% dialyzed FBS, 5.12 µM
[10] = HPLM + 10% dialyzed FBS, 15.4 µM
[11] = HPLM + 10% dialyzed FBS, 46.1 µM
[12] = RPMI 5 mM glucose + 10% FBS, 0.000781 µM
[13] = RPMI 5 mM glucose + 10% FBS, 0.00234 µM
[14] = RPMI 5 mM glucose + 10% FBS, 0.00702 µM
[15] = RPMI 5 mM glucose + 10% FBS, 0.0211 µM
[16] = RPMI 5 mM glucose + 10% FBS, 0.0632 µM
[17] = RPMI 5 mM glucose + 10% FBS, 0.19 µM
[18] = RPMI 5 mM glucose + 10% FBS, 0.569 µM
[19] = RPMI 5 mM glucose + 10% FBS, 1.71 µM
[20] = RPMI 5 mM glucose + 10% FBS, 5.12 µM
[21] = RPMI 5 mM glucose + 10% FBS, 15.4 µM
[22] = RPMI 5 mM glucose + 10% FBS, 46.1 µM
[23] = RPMI 5 mM glucose + 10% dialyzed FBS, 0.000781 µM
[24] = RPMI 5 mM glucose + 10% dialyzed FBS, 0.00234 µM
[25] = RPMI 5 mM glucose + 10% dialyzed FBS, 0.00702 µM
[26] = RPMI 5 mM glucose + 10% dialyzed FBS, 0.0211 µM
[27] = RPMI 5 mM glucose + 10% dialyzed FBS, 0.0632 µM
[28] = RPMI 5 mM glucose + 10% dialyzed FBS, 0.19 µM
[29] = RPMI 5 mM glucose + 10% dialyzed FBS, 0.569 µM
[30] = RPMI 5 mM glucose + 10% dialyzed FBS, 1.71 µM
[31] = RPMI 5 mM glucose + 10% dialyzed FBS, 5.12 µM
[32] = RPMI 5 mM glucose + 10% dialyzed FBS, 15.4 µM
[33] = RPMI 5 mM glucose + 10% dialyzed FBS, 46.1 µM

| SMILES | cell viability [1] | cell viability [2] | cell viability [3] | cell viability [4] | cell viability [5] | cell viability [6] | cell viability [7] | cell viability [8] | cell viability [9] | cell viability [10] | cell viability [11] | cell viability [12] | cell viability [13] | cell viability [14] | cell viability [15] | cell viability [16] | cell viability [17] | cell viability [18] | cell viability [19] | cell viability [20] | cell viability [21] | cell viability [22] | cell viability [23] | cell viability [24] | cell viability [25] | cell viability [26] | cell viability [27] | cell viability [28] | cell viability [29] | cell viability [30] | cell viability [31] | cell viability [32] | cell viability [33] |
| --- | --- | --- | --- | --- | --- | --- | --- | --- | --- | --- | --- | --- | --- | --- | --- | --- | --- | --- | --- | --- | --- | --- | --- | --- | --- | --- | --- | --- | --- | --- | --- | --- | --- |
| Cc1cccc(C)c1OCC(=O)N[C@@H](Cc1ccccc1)[C@@H](O)C[C@H](Cc1ccccc1)NC(=O)[C@H](C(C)C)N1CCCNC1=O | 95.1% | 106% | 102% | 109% | 104% | 111% | 89% | 91.5% | 91.4% | 81% | 43.9% | 85.8% | 94% | 97.7% | 85.8% | 95.9% | 97.3% | 84% | 78.4% | 83% | 86.4% | 74.4% | 96.9% | 92.9% | 92.9% | 107% | 91.1% | 89.2% | 81.1% | 82.4% | 89.4% | 76.5% | 71% |
| C[C@@H]1COCCN1C\2=C\C(=O)N\3CC[C@H](N(CC4=CN=CC(=C4)Cl)C3=N2)C(F)(F)F | 90.9% | 95.9% | 102% | 105% | 124% | 130% | 112% | 100% | 103% | 45.4% | 29.4% | 98% | 87.7% | 95.1% | 93.8% | 95.4% | 98.5% | 92.7% | 94.2% | 96.9% | 57.4% | 26% | 87.7% | 89.9% | 91.1% | 98.4% | 108% | 113% | 95.1% | 89.5% | 67.7% | 37% | 22% |
| C[S+](=O)([O-])N(Cc1ccco1)CC(O)Cn1c2ccccc2c2ccccc21 (centres undefined) | 95.3% | 99% | 102% | 105% | 86.5% | 91.2% | 93.9% | 82.8% | 83.6% | 73.6% | 35.2% | 88.4% | 91.6% | 91.4% | 92.2% | 94.3% | 94% | 90% | 80.7% | 79.6% | 86.3% | 52.8% | 97.9% | 89.2% | 93.3% | 90.3% | 93.3% | 90.1% | 97.8% | 85.1% | 80.8% | 77.9% | 50.8% |
| O=C(Nc1cccc(Nc2ncc(Br)c(NCCc3cnc[nH]3)n2)c1)N1CCCC1 |  |  |  |  |  |  |  |  |  |  |  | 113% | 117% | 122% | 112% | 112% | 110% | 68.7% | 71.1% | 62.8% | 12.4% | 1.13% | 103% | 106% | 107% | 107% | 113% | 95.2% | 92.2% | 59.6% | 65.2% | 37.1% | 0.0873% |
| CCC1(c2ccc(N)cc2)CCC(=O)NC1=O (centres undefined) | 115% | 107% | 125% | 124% | 122% | 119% | 115% | 110% | 116% | 93.9% | 97.6% | 106% | 107% | 116% | 116% | 102% | 117% | 103% | 104% | 123% | 110% | 99.7% | 114% | 111% | 116% | 117% | 118% | 104% | 107% | 123% | 102% | 111% | 111% |
| O=C(CO)N1CCC(c2n[nH]c(-c3ccc(Cl)cc3)c2-c2ccncn2)CC1 | 117% | 121% | 134% | 129% | 117% | 129% | 120% | 117% | 123% | 34.6% | 78.2% | 111% | 115% | 118% | 113% | 121% | 111% | 113% | 115% | 119% | 57.3% | 96.3% | 113% | 123% | 116% | 105% | 123% | 111% | 109% | 119% | 113% | 41.6% | 92.8% |
| OCc1ccc(-c2nn(Cc3ccccc3)c3ccccc23)o1 | 120% | 101% | 120% | 127% | 108% | 101% | 111% | 64.6% | 91.6% | 38.5% | 9% | 104% | 111% | 104% | 102% | 95.4% | 96.4% | 96.8% | 93.4% | 98.6% | 38% | 8.67% | 110% | 105% | 105% | 113% | 107% | 105% | 107% | 89.6% | 81.6% | 42.4% | 7.56% |
| CC(=O)OCC(=O)[C@@]12\N=C(C)/O[C@@H]1C[C@H]3[C@@H]4CCC/5=C/C(=O)/C=C\[C@]5(C)[C@H]4[C@@H](O)C[C@]23C | 107% | 102% | 109% | 130% | 133% | 137% | 122% | 128% | 105% | 121% | 86.6% | 94.3% | 106% | 94.6% | 105% | 108% | 106% | 107% | 113% | 107% | 98% | 99.6% | 94.1% | 96.1% | 102% | 99.2% | 105% | 117% | 109% | 113% | 109% | 104% | 91.8% |
| C\C1=C\N([C@H]2C[C@H](N=[N+]=[N-])[C@@H](CO)O2)C(=O)NC1=O | 94.1% | 109% | 99.4% | 105% | 111% | 120% | 109% | 61% | 29.7% | 19.8% | 25.7% | 88.2% | 109% | 105% | 106% | 96.7% | 97.5% | 106% | 29.3% | 15.1% | 14.3% | 10.2% | 107% | 110% | 109% | 110% | 105% | 103% | 113% | 68.6% | 20.8% | 19.6% | 18.9% |
| O=C(/C=C/c1c(C(=O)[O-])[nH]c2cc(Cl)cc(Cl)c12)Nc1ccccc1 | 112% | 115% | 116% | 116% | 99.9% | 117% | 118% | 110% | 113% | 112% | 108% | 90.5% | 99% | 99.5% | 95.1% | 101% | 116% | 107% | 107% | 107% | 124% | 107% | 110% | 109% | 114% | 126% | 126% | 120% | 115% | 120% | 111% | 127% | 118% |
| CC(=O)CC(C1=CC=CC=C1)C/2=C(O)/C3=CC=CC=C3OC2=O (centres undefined) | 96.8% | 126% | 111% | 129% | 124% | 132% | 132% | 128% | 147% | 143% | 155% |  |  |  |  |  |  |  |  |  |  |  | 109% | 116% | 128% | 123% | 120% | 126% | 127% | 121% | 124% | 127% | 129% |
| CC(C)n1nc(-c2ccc3oc(N)nc3c2)c2c(N)ncnc21 | 96.9% | 75.9% | 65.1% | 62.6% | 55.3% | 53.6% | 52.2% | 55% | 50.6% | 33.1% | 26.3% | 93.1% | 96.5% | 83.3% | 77.6% | 66.6% | 59.2% | 56.8% | 50.3% | 49.9% | 38.7% | 34.4% | 83.4% | 74.5% | 67.2% | 58.5% | 59.6% | 52.6% | 51.7% | 48.6% | 43.2% | 35.7% | 31.3% |
| CC(C)[C@@H](C[S+](=O)([O-])C(C)C)N1C(=O)[C@@](C)(CC(=O)O)C[C@H](c2cccc(Cl)c2)[C@H]1c1ccc(Cl)cc1 | 122% | 115% | 129% | 143% | 140% | 97.9% | 36.4% | 35.6% | 31.2% | 33.6% | 29.3% | 128% | 106% | 113% | 109% | 121% | 128% | 111% | 64.8% | 24.5% | 19.5% | 22.2% | 117% | 98.5% | 108% | 112% | 145% | 132% | 98.5% | 65.9% | 47.1% | 25.2% | 19.1% |
| Cc1nccn1CC1CCc2c(c3ccccc3n2C)C1=O (centres undefined) |  |  |  |  |  |  |  |  |  |  |  | 115% | 108% | 114% | 122% | 105% | 105% | 111% | 111% | 108% | 112% | 105% | 113% | 116% | 115% | 121% | 118% | 112% | 113% | 111% | 109% | 106% | 104% |
